Where a name gives a salt, the structure may show the parent alone.
Assays:
[1] = test system: NLRP3 inflammasome; assay: IL-1β secretion assay; assay type: cell-based; conditions: Homo sapiens, THP-1, 3 h, PMA-differentiated THP-1 cells, 15 μM nigericin, HTRF
Procedure: 10 μL supernatant was removed, and IL-1p levels were monitored using an HTRF assay (CisBio, #62IL1PEC) according to manufacturers' instructions. Viability and pyroptosis was monitored with the addition of PrestoBlue cell viability reagent (Life Technologies, #A13261) directly to the cell culture plate.
(§1) IC50 values were calculated from the plot of percentage of inhibition versus the inhibitor concentration by a logistics fit according to: y=A2+(A1−A2)/(1+(x/IC50)^p) where y is the %-inhibition at the inhibitor concentration, x. A1 is the lowest inhibition value, i.e. 0%, and A2 the maximum inhibition value, i.e. 100%. The exponent, p, is the Hill coefficient. The curve fitting was conducted with an internally developed software suite.
NLRP3-dependent IL-1β secretion was stimulated in PMA-differentiated THP-1 cells by the addition of nigericin, and cytokines were measured in the […] after 3 hours. As discussed above, activation of the NLRP3 inflammasome requires both an NF-kB-dependent priming step and the addition of a NLRP3 activator.

[2] = test system: NF-kB-dependent TNF-α secretion; assay: TNF-α secretion assay (counterscreen); assay type: cell-based; conditions: Homo sapiens; THP-1 cells, Pam3CSK4-stimulated, 3 hours, HTRF
Procedure: Monocytic THP-1 cells were maintained according to providers' instructions in RPMI media as described above. Undifferentiated cells were plated at 50,000 cells per well in a 384-well flat-bottom cell culture plates (Greiner, #781986), and allowed to rest overnight. Experimental compounds were prepared and added as described above. TNF-α secretion was triggered by the addition of either 1 μg/mL LPS (Sigma, #L4391) or 100 ng/mL Pam3CSK4 (Invivogen, #tlrl-pms) depending on the experiment, and cells were incubated for 3 hours. 10 μL supernatant was removed, and TNF-α levels were monitored using an HTRF assay (CisBio, #62TNFPEC) according to manufacturers' instructions. Viability was monitored as described above.
as §1, with “suite. […]” for “suite.”

SMILES | IC50 [1] | IC50 [2]
CC(C)c1nn(CC(=O)N[C@@H]2CCCOC2)c(=O)c2cc3sc(Cl)cc3n12 [Ex 59, (R)-2-(2-Chloro-5-isopropyl-8-oxothieno[2′,3′:4,5]pyrrolo[1,2-d][1,2,4]triazin-7(8H)-yl)-N-(tetrahydro-2H-pyran-3-yl)acetamide] | 201 nM | > 100000 nM
CC(C)c1nn(CC(=O)N[C@H]2CCOC2)c(=O)c2cc3sc(Cl)cc3n12 [Ex 99, (S)-2-(2-Chloro-5-isopropyl-8-oxothieno[2′,3′:4,5]pyrrolo[1,2-d][1,2,4]triazin-7(8H)-yl)-N-(tetrahydrofuran-3-yl)acetamide] | 537 nM | > 100000 nM
Cc1nc2c(cc3c(=O)n(CC(=O)N[C@@H]4CCCNC4)nc(C(C)C)n32)s1 [Ex 50, (R)-2-(5-Isopropyl-2-methyl-8-oxothiazolo[5′,4′:4,5]pyrrolo[1,2-d][1,2,4]triazin-7(8H)-yl)-N-(piperidin-3-yl)acetamide] | 108 nM | > 100000 nM
CN1C[C@H](NC(=O)Cn2nc(C(C)(C)O)n3c(cc4sc(Cl)cc43)c2=O)CCC1=O [Ex 29, (R)-2-(2-Chloro-5-(2-hydroxypropan-2-yl)-8-oxothieno[2′,3′:4,5]pyrrolo[1,2-d][1,2,4]triazin-7(8H)-yl)-N-(1-methyl-6-oxopiperidin-3-yl)acetamide] | 35.7 nM | > 100000 nM
CC(C)c1nn(CC(=O)N[C@@H]2CCCN(CCF)C2)c(=O)c2cc3sc(Cl)cc3n12 [Ex 28, (R)-2-(2-Chloro-5-isopropyl-8-oxothieno[2′,3′:4,5]pyrrolo[1,2-d][1,2,4]triazin-7(8H)-yl)-N-(1-(2-fluoroethyl)piperidin-3-yl)acetamide] | 13.3 nM | > 100000 nM
O=C(Cn1nc(C2CC2)n2c(cc3sc(F)cc32)c1=O)N[C@@H]1CCCNC1 [Ex 34, (R)-2-(5-Cyclopropyl-2-fluoro-8-oxothieno[2′,3′:4,5]pyrrolo[1,2-d][1,2,4]triazin-7(8H)-yl)-N-(piperidin-3-yl)acetamide] | 80.3 nM | > 100000 nM
Cc1cc2c(cc3c(=O)n(CC(=O)N[C@@H]4CCCN(C)C4)nc(C(C)C)n32)s1 [Ex 40, (R)-2-(5-Isopropyl-2-methyl-8-oxothieno[2′,3′:4,5]pyrrolo[1,2-d][1,2,4]triazin-7(8H)-yl)-N-(1-methylpiperidin-3-yl)acetamide] | 56.3 nM | > 100000 nM
CC(C)c1nn(CC(=O)N[C@@H]2CCC[C@@](C)(O)C2)c(=O)c2cc3scnc3n12 [Ex 90, N-((1R,3R)-3-Hydroxy-3-methylcyclohexyl)-2-(5-isopropyl-8-oxothiazolo[5′,4′:4,5]pyrrolo[1,2-d][1,2,4]triazin-7(8H)-yl)acetamide] | 60.8 nM | > 100000 nM
CC(C)c1nn(CC(=O)NCCO)c(=O)c2cc3sc(Cl)cc3n12 [Ex 68, 2-(2-Chloro-5-isopropyl-8-oxothieno[2′,3′:4,5]pyrrolo[1,2-d][1,2,4]triazin-7(8H)-yl)-N-(2-hydroxyethyl)acetamide] | 45.2 nM | > 100000 nM
CC(C)c1nn(CC(=O)NC2CC3(COC3)C2)c(=O)c2cc3sc(Cl)cc3n12 [Ex 24, 2-(2-Chloro-5-isopropyl-8-oxothieno[2′,3′:4,5]pyrrolo[1,2-d][1,2,4]triazin-7(8H)-yl)-N-(2-oxaspiro[3.3]heptan-6-yl)acetamide] | 39.5 nM | > 100000 nM
CC(C)c1nn(CC(=O)N[C@H]2CCC[C@@H](C(=O)O)C2)c(=O)c2cc3sc(Cl)cc3n12 [Ex 55, (1R,3S)-3-(2-(2-Chloro-5-isopropyl-8-oxothieno[2′,3′:4,5]pyrrolo[1,2-d][1,2,4]triazin-7(8H)-yl)acetamido)cyclohexane-1-carboxylic acid] | 843 nM | > 100000 nM
CC(C)c1nn(CC(=O)NC23CCC(O)(CC2)CC3)c(=O)c2cc3sc(Cl)cc3n12 [Ex 76, 2-(2-Chloro-5-isopropyl-8-oxothieno[2′,3′:4,5]pyrrolo[1,2-d][1,2,4]triazin-7(8H)-yl)-N-(4-hydroxybicyclo[2.2.2]octan-1-yl)acetamide] | 45.1 nM | > 100000 nM
CC(O)c1nn(CC(=O)N[C@@H]2CCCNC2)c(=O)c2cc3sc(Cl)cc3n12 (stereo partly drawn) [Ex 43, 2-(2-Chloro-5-(1-hydroxyethyl)-8-oxothieno[2′,3′:4,5]pyrrolo[1,2-d][1,2,4]triazin-7(8H)-yl)-N-((R)-piperidin-3-yl)acetamide hydrochloride] | 2050 nM | > 100000 nM
CC(C)c1nn(CC(=O)N[C@@H]2CCCN(CC3(O)CCC3)C2)c(=O)c2cc3sc(Cl)cc3n12 [Ex 131, (R)-2-(2-Chloro-5-isopropyl-8-oxothieno[2′,3′:4,5]pyrrolo[1,2-d][1,2,4]triazin-7(8H)-yl)-N-(1-((1-hydroxycyclobutyl)methyl)piperidin-3-yl)acetamide] | 17.9 nM | > 33000 nM
CC(C)c1nn(CC(=O)N[C@@H]2CCC(=O)NC2)c(=O)c2cc3scnc3n12 [Ex 46, (R)-2-(5-Isopropyl-8-oxothiazolo[5′,4′:4,5]pyrrolo[1,2-d][1,2,4]triazin-7(8H)-yl)-N-(6-oxopiperidin-3-yl)acetamide] | 50.8 nM | > 100000 nM
COC(=O)C12CC(NC(=O)Cn3nc(C(C)C)n4c(cc5sc(Cl)cc54)c3=O)(C1)C2 [Ex 113, Methyl 3-(2-(2-chloro-5-isopropyl-8-oxothieno[2′,3′:4,5]pyrrolo[1,2-d][1,2,4]triazin-7(8H)-yl)acetamido)bicyclo[1.1.1]pentane-1-carboxylate] | 5.8 nM | > 100000 nM
CC(C)c1nn(CC(=O)N[C@@H]2CCC[C@@H](O)C2)c(=O)c2cc3sc(Cl)cc3n12 [Ex 21, 2-(2-Chloro-5-isopropyl-8-oxothieno[2′,3′:4,5]pyrrolo[1,2-d][1,2,4]triazin-7(8H)-yl)-N-((1R,3R)-3-hydroxycyclohexyl)acetamide] | 32.5 nM | > 100000 nM
CC(O)c1nn(CC(=O)N[C@@H]2CCCN(C)C2)c(=O)c2cc3sc(Cl)cc3n12 (stereo partly drawn) [Ex 44, 2-(2-Chloro-5-(1-hydroxyethyl)-8-oxothieno[2′,3′:4,5]pyrrolo[1,2-d][1,2,4]triazin-7(8H)-yl)-N-((R)-1-methylpiperidin-3-yl)acetamide] | 112 nM | > 100000 nM
CC(C)c1nn(CC(=O)NC23CC4CC(CC(O)(C4)C2)C3)c(=O)c2cc3sc(Cl)cc3n12 [Ex 114, 2-(2-Chloro-5-isopropyl-8-oxothieno[2′,3′:4,5]pyrrolo[1,2-d][1,2,4]triazin-7(8H)-yl)-N-((1S,3R,5S)-3-hydroxyadamantan-1-yl)acetamide] | 298 nM | > 11000 nM
CC(C)c1nn(CC(=O)NCCC(C)(C)O)c(=O)c2cc3sc(Cl)cc3n12 [Ex 77, 2-(2-Chloro-5-isopropyl-8-oxothieno[2′,3′:4,5]pyrrolo[1,2-d][1,2,4]triazin-7(8H)-yl)-N-(3-hydroxy-3-methylbutyl)acetamide] | 14 nM | > 100000 nM
CC1(C)CC(NC(=O)Cn2nc(C(C)(C)O)n3c(cc4sc(Cl)cc43)c2=O)C1 [Ex 25, 2-(2-Chloro-5-(2-hydroxypropan-2-yl)-8-oxothieno[2′,3′:4,5]pyrrolo[1,2-d][1,2,4]triazin-7(8H)-yl)-N-(3,3-dimethylcyclobutyl)acetamide] | 78.5 nM | > 100000 nM
CC(C)c1nn(CC(=O)N[C@@H]2CCC[C@H](O)C2)c(=O)c2cc3scnc3n12 [Ex 91, N-((1R,3S)-3-Hydroxycyclohexyl)-2-(5-isopropyl-8-oxothiazolo[5′,4′:4,5]pyrrolo[1,2-d][1,2,4]triazin-7(8H)-yl)acetamide] | 1.9 nM | > 100000 nM
CC(C)c1nn(CC(=O)N[C@@H]2CCCNC2)c(=O)c2cc3scnc3n12 [Ex 88, (R)-2-(5-Isopropyl-8-oxothiazolo[5′,4′:4,5]pyrrolo[1,2-d][1,2,4]triazin-7(8H)-yl)-N-(piperidin-3-yl)acetamide] | 27.5 nM | > 100000 nM
Cc1nc2c(cc3c(=O)n(CC(=O)NC4CC4)nc(C(C)C)n32)s1 [Ex 96, N-Cyclopropyl-2-(5-isopropyl-2-methyl-8-oxothiazolo[5′,4′:4,5]pyrrolo[1,2-d][1,2,4]triazin-7(8H)-yl)acetamide] | 1040 nM | > 33000 nM
Cc1cc2c(cc3c(=O)n(CC(=O)NC4CC4)nc(C(C)C)n32)s1 [Ex 41, N-Cyclopropyl-2-(5-isopropyl-2-methyl-8-oxothieno[2′,3′:4,5]pyrrolo[1,2-d][1,2,4]triazin-7(8H)-yl)acetamide] | 1170 nM | > 100000 nM

Source: patent US12168012B2, “NLRP3 inflammasome inhibitors” (Novartis AG, priority 2018, dated 2024)
